Reference: patent publication US20140079741A1, “INHIBITION AND TREATMENT OF BIOFILMS” (priority 2011, published 2014)

What was measured:
[1] = tested on: biofilms of C. albicans CAF2-1; experiment: MIC50 against biofilms (XTT reduction assay); assay type: cell-based, Candida albicans; details: Candida albicans, biofilms, diclofenac alone
Experimental: Using the same setup as above, WT biofilms grown in the presence or absence of diclofenac (0.5-3 mM or 148-888 μg/mL) were incubated with various concentrations of Caspofungin (0-150 μM) for 24 h, both in the presence or absence of diclofenac. After washing, the remaining living cells within the biofilm was determined by CellTiter-Blue quantification. The MIC50 of caspofungin, diclofenac and the combination of both drugs against pretreated or mature C. albicans biofilms was quantified by XTT reduction assay (Ramage et al.).
(§1) Similar results were obtained by determination of the MIC50 values. The susceptibility testing and determination of minimal inhibitory concentrations (MIC) of diclofenac and caspofungin, and combinations thereof that inhibit fungal growth by 50% (MIC50) were performed according the NCCLS M27-A3 protocol (2008).

[2] = tested on: C. albicans biofilms of wild type CAF2; experiment: Biofilm activity assay, crystal violet quantification (BEC50); assay type: cell-based, Candida albicans; details: 500 μg/ml diclofenac in the absence of miconazole
Experimental: Biofilm activity assay. The activity of miconazole and fluconazole against 16 h-old C. albicans biofilms (10^7 cells/well) was assessed using the crystal violet quantification method. The biofilm-eradicating capacity of a compound was determined as the minimal concentration resulting in 50% eradication of the biofilm (BEC50).
Miconazole sensitivity was analyzed of biofilms of C. albicans homozygous null mutants affected in genes involved in the cyclic AMP signaling pathway, namely Δcdc35, Δras1, Δpde1, Δpde2 and Δefg1. To this end, the inventors incubated 16 h-old C. albicans biofilms with various concentrations of miconazole for 24 h and determined the remaining biomass using the crystal violet quantification method.
To this end, cultures of the WT CAF2-1 were grown overnight (2×10^8 cells/ml) in YPD (1% yeast extract, 2% peptone, 2% glucose) and washed 3 times in PBS (pH 7.4). After dilution (OD600=0.5) in SC (1% CSM, complete amino acid supplement mixture, 1% YNB, yeast nitrogen base; 2% glucose), the cultures were resuspended (100 μl/well) in a 96well microtiter plate. After 1 h of adhesion, the adherent WT cells were incubated with or without 500 μg/ml diclofenac and allowed biofilm formation for 16 h. Next, the resulting biofilms were washed with PBS and treated with various concentrations of miconazole for 24 h in the absence or presence of diclofenac. After washing, the remaining biomass was determined using the crystal violet quantification method.
The biofilm-eradicating capacity of a compound was determined as the minimal concentration resulting in 50% eradication of the biofilm (BEC50).

C. albicans WT biofilms = experiment: Biofilm survival by CFU determination (plating on YPD); assay type: cell-based, Candida albicans; details: 500 μg/ml diclofenac alone
Experimental: Using the same setup as in Example 2, WT biofilms grown in the presence or absence of diclofenac (500 μg/ml) or Δefg1 biofilms were incubated with various concentrations of Amphotericin B (AmB) (2.5-10 μg/ml) for 24 h, both in the presence or absence of diclofenac. After washing, the remaining living cells within the biofilm were determined by plating on YPD and determination of colony forming units (CFUs).

C. albicans cells = experiment: Morphology of planktonic and biofilm cells (fluorescence microscopy); assay type: cell-based, Candida albicans; details: pretreated with diclofenac alone, 0.5-3 mM
Experimental: However, the morphology of biofilm cells pretreated with diclofenac alone (ranging from 0.5-3 mM), was not altered.

[3] = tested on: planktonic cultures of C. albicans CAF2-1; experiment: MIC50 against planktonic cultures (NCCLS M27-A3); assay type: cell-based, Candida albicans; details: diclofenac up to 2 mM
Experimental: as §1

[4] = tested on: C. albicans biofilms grown on catheters; experiment: In vitro biofilm drug susceptibility on polyurethane catheter pieces (CFU); assay type: cell-based, Candida albicans; details: 2 mM diclofenac pretreatment alone
Experimental: In an alternative setup, in vitro biofilm drug susceptibility assays were performed using serum-coated 1 cm polyurethane catheter pieces (Arrow International Reading) as described previously. Biofilms were grown in RPMI 1640 (pH 7.0) and Candida cells were allowed to adhere to the substrate for 90 min.
Diclofenac (2 mM) was administered during the period of adhesion of C. albicans cells on the catheters and throughout the period of biofilm formation. Catheter fragments containing diclofenac-pretreated or untreated mature biofilms were washed and subsequently incubated with caspofungin (125 μM) or water in the presence or absence of diclofenac (2 mM) for 24 h, respectively. Biofilms were washed and quantified by determination of colony forming units. Untreated biofilms were considered as controls. Statistical analysis was performed using unpaired t-test; differences were considered significant if p<0.05. Data are the mean and SEM of five independent experiments using at least two catheters per test group.
Similar results were obtained when assessing the antibiofilm effect of caspofungin against mature biofilms, which were formed on diclofenac-soaked catheter fragments versus those formed on unsoaked catheter fragments.

[5] = tested on: C. albicans CAF2 biofilms on implanted catheter fragments; experiment: Rat subcutaneous catheter infection model (in vivo biofilm susceptibility); design: species or system Candida albicans; details: rats
Experimental: A rat subcutaneous catheter infection model was used for in vivo biofilm susceptibility studies, in which 6 rats were treated with sterile saline (control, 40 catheters), 6 rats with diclofenac (48 catheters), 5 rats with caspofungin (40 catheters) and 6 rats with a combination of diclofenac and caspofungin (45 catheters).
Diclofenac and caspofungin solutions for intravenous injection were prepared in sterile physiological solution. The administration of diclofenac (3 mg/kg) started immediately after the catheter implant and continued daily up to 9 days. The treatment with caspofungin (3 mg/kg) was initiated after 48 h of in vivo biofilm development and maintained by daily injections for 7 days. Sterile saline was administered to the control group. Further analysis and quantification of the number of cells per individual biofilm was performed as previously described. Statistical analysis was performed using unpaired t-test; differences were considered significant if p<0.05. Data are the means and SEM of 2 independent experiments. Six independent catheters retrieved from each test group were used for scanning electron microscopy (SEM) analyses. Prior to the SEM analysis, each catheter fragment was cut longitudinally through the lumen and subsequently prepared for microscopy as previously described.

[6] = tested on: C. albicans biofilm cells; experiment: Membrane permeability by propidium iodide fluorescence; assay type: cell-based, Candida albicans; details: 2 mM diclofenac during adhesion and growth phase, 24 h, RPMI 1640
Experimental: This was further investigated by evaluating the membrane-disruptive activity of diclofenac on in vitro grown C. albicans biofilm cells by measuring the fluorescence enhancement of propidium iodide (PI). To this end, C. albicans biofilms were grown in RPMI 1640 (pH 7.0) in the presence or absence of diclofenac (ranging from 0.25-4 mM) for 24 h. Next, the biofilm cells were incubated with 3% PI for 20 minutes at room temperature in the dark. Membrane permeability was quantified by measurement of PI fluorescence (excitation at 535 nm, emission at 617 nm).

In the case of `O=C(O)Cc1ccccc1Nc1c(Cl)cccc1Cl` [diclofenac], the MIC50 [1] is reported as 2000 µM, the “remaining C. albicans biofilms compared to untreated WT biofilms” value [2] is reported as “about 50%” and the “less biofilm cells compared to untreated WT biofilms” value (C. albicans WT biofilms) is reported as “about 50%”. For the same molecule, the “morphology of biofilm cells” value (C. albicans cells) was “not altered”, the “inhibitory activity against planktonic cells” value [3] was “no inhibitory activity” and the “number of biofilm cells compared to untreated catheters” value [4] was “no significant difference”. The “biofilm structure by scanning electron microscopy” value ([5]; diclofenac alone) was “no biofilm-inhibitory effect”, the “number of biofilm cells on catheters compared to control treatment” value ([5]; diclofenac alone 3 mg/kg intravenous daily, 48 h pretreatment and up to 7 days further) was “no significant difference” and the “membrane permeability compared to untreated cells” value [6] was “significantly increased membrane permeability”.
